Measured values taken from patent US20130252331A1, “COMPOSITIONS AND METHODS FOR MODULATING METABOLISM” (priority 2010, published 2013).

Assays:
[1] = Unspecified biological assay; details: assay not specified
3T3L1 cells = test: Adipogenesis of 3T3L1 cells, Oil Red O staining for lipid accumulation; format: cell-based; details: 3T3L1 cells differentiated for eight days in increasing concentrations
Source text: FIG. 1 includes eight micrographs showing that the inhibition of BET protein family members blocks adipogenesis in a dose dependent manner in 3T3L1 cells, which is a cell line that is widely used as a model for adipogenesis. […] Following drug treatment cells were stained with Oil Red O as a measure of lipid accumulation that indicates the degree of adipocyte differentiation.
3T3L1 cells are a well characterized cell type that can be differentiated into fat cells that contain large lipid droplets. […] The cells were differentiated for eight days. On the final day, the cells were stained with Oil Red O, which stains for lipid accumulation in the cells.

[2] = test system: genes that control fat accumulation in liver; test: Liver RNA expression of genes that control fat accumulation in ob/ob mice; format: in vivo, mouse; details: two weeks of treatment
Method: Following treatment, the organs were harvested and liver RNA was isolated to measure gene expression profiles. The expression levels of a panel of genes that function in the control of fat accumulation in liver were measured.

ob/ob mice [3] = test: Liver and subcutaneous fat weight and liver H&E histology in ob/ob mice
Method: The sections were stained with hematoxylin and eosin.
Five week old Ob/ob mice were treated with either vehicle (control) or a chemical inhibitor of the BET protein family (JQ) for approximately two weeks. Following treatment the mice were euthanized and organs were harvested and weighed. The weight of the livers and subcutaneous fat were determined.

PPARγ = PPARγ gene expression in 3T3L1 cells during adipocyte differentiation (RT-PCR); format: cell-based; details: 500 nM, first four days of differentiation
Method: (§1) C/EBPα and PPARγ are essential, positive regulators of adipogenesis. […] Results were obtained using RT-PCR.
(§2) Gene expression levels of two key proteins that function in fat cell differentiation, C/EBPα and PPARγ, were measured over the first four days of differentiation.

C/EBPα = C/EBPα gene expression in 3T3L1 cells during adipocyte differentiation (RT-PCR); format: cell-based; details: 500 nM, first four days of differentiation
Method: as §1, §2

ob/ob mice [4] = test: Weight gain, food intake and feed efficiency in ob/ob mouse obesity model; format: in vivo; details: 50 mg/kg, 14 days
Source text: FIGS. 3A-3E are graphs showing that inhibition of BET family members blocks weight gain in ob/ob mice, a murine obesity model that lacks leptin.
Ob/ob mice are a well established mouse obesity model that gains weight rapidly on a normal mouse chow diet. […] Without wishing to be bound by theory, it is likely that the disparity is due to differences in the way that ob/ob mice treated with JQ are metabolizing food relative to untreated ob/ob mice.

C57B/6 male mice = test: Insulin tolerance test in C57B/6 mice on high fat diet; format: in vivo, mouse
Method: FIG. 9B is a graph of the area under the curve (AUC) of the data in FIG. 9A.
8 week old C57B/6 male mice were started on a high fat diet containing 60% kcal fat. […] Body weight was measured every week. The mice were then examined for the degree of insulin resistance by insulin tolerance testing. […] Following insulin injection blood glucose was measured at the indicated time points.

[5] = approximately two weeks of treatment

Cc1sc2c(c1C)C(c1ccc(Cl)cc1)=N[C@@H](CC(=O)NN)c1nnc(C)n1-2 [Compound 3]
activity in at least one biological assay [1]: showed activity

Cc1sc2c(c1C)C(c1ccc(Cl)cc1)=N[C@@H](CC(=O)N/N=C/c1ccc(O)cc1)c1nnc(C)n1-2 [Compound 4]
activity in at least one biological assay [1]: showed activity

Cc1sc2c(c1C)C(c1ccc(Cl)cc1)=N[C@@H](CC(=O)OC(C)(C)C)c1nnc(C)n1-2 [JQ1 (S) enantiomer, (S)-tert-Butyl 2-(4-(4-chlorophenyl)-2,3,9-trimethyl-6H-thieno[3,2-f][1,2,4]triazolo[4,3-a][1,4]diazepin-6-yl)acetate]
adipogenesis / lipid accumulation (Oil Red O staining) (3T3L1 cells): inhibited lipid accumulation
adipogenesis / lipid accumulation (Oil Red O staining) (3T3L1 cells; listed as JQ (S) enantiomer): inhibited adipogenesis in a dose dependent manner

Cc1sc2c(c1C)C(c1ccc(Cl)cc1)=N[C@@H](CC(=O)OC(C)(C)C)c1nnc(C(F)(F)F)n1-2 [JQ11]
liver expression of ACC beta [2]: reduced the expression
liver expression of DGAT [2]: reduced the expression
liver expression of FAS [2]: not statistically significant
liver expression of PPARγ2 [2]: reduced the expression
liver expression of SCD1 [2]: reduced the expression
liver expression of SREBP [2]: reduced the expression

Cc1sc2c(c1C)C(c1ccc(Cl)cc1)=N[C@H](CC(=O)OC(C)(C)C)c1nnc(C)n1-2 [JQ (R) enantiomer]
adipogenesis / lipid accumulation (Oil Red O staining) (3T3L1 cells): no effect on the generation of lipid

Cc1sc2c(c1C)C(c1ccc(Cl)cc1)=N[C@@H](CC(=O)OC(C)(C)C)c1nnc(C)n1-2 [JQ]
liver weight (ob/ob mice [3]; [5]): statistically significant reductions
subcutaneous fat weight (ob/ob mice [3]; [5]): statistically significant reductions
hepatic steatosis / liver histology (H&E) (ob/ob mice [3]; two week treatment): complete block in hepatic steatosis
induction of PPARγ expression (PPARγ): significantly blocked the induction
induction of C/EBPα expression (C/EBPα): significantly blocked the induction
food intake (ob/ob mice [4]): mildly inhibited
weight gain (ob/ob mice [4]): blocked weight gain
blood glucose after insulin injection (C57B/6 male mice; 7 weeks high fat diet and 50 mg/kg daily, 4 h fast, insulin 0.5 U/kg intraperitoneal): sustained decrease in blood glucose up to 2 hours
area under the curve for change in blood glucose (C57B/6 male mice; 2 hour time course after insulin, p<0.05): statistically significant decrease
